Laboratory results taken from patent publication US8247211B2, “Glycopeptide antibiotics” (American Cyanamid Company, priority 2001, dated 2012).
≈ marks a conversion by molar mass, not a printed value.

Assays:
Assay in all cases: In vitro antibacterial evaluation: minimum inhibitory concentration (MIC), broth dilution method
Assay type in all cases: cell-based
Details in all cases: broth dilution, 18 hours at 35° C.
Enterococcus sp. = system: Enterococcus sp.
Summary of the method: (§1)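 NCCLS M7-A2 broth dilution with Mueller-Hinton II, testing 64-0.06 μg/mL antibiotic against 5×10^5 CFU/mL inocula. Test strains include recent methicillin-, penicillin- or vancomycin-resistant clinical isolates. MIC is the lowest concentration preventing growth.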

Staphylococcus sp. = system: Staphylococcus sp.
Summary of the method: as §1

Streptococcus sp. = system: Streptococcus sp.
Summary of the method: as §1

Escherichia coli = system: Escherichia coli
[1] = Enterococcus faecalis (ATCC 29212)
[2] = Enterococcus faecalis (GC 2242)
[3] = Enterococcus faecalis (GC 2691)
[4] = Enterococcus faecalis (GC 4553)
[5] = Enterococcus faecalis (GC 6189)
[6] = Streptococcus agalactiae (GC 4564)
[7] = Streptococcus pneumoniae (ATCC 6301)
[8] = Streptococcus pneumoniae (GC 1894)
[9] = Streptococcus pneumoniae (GC 4565)
[10] = Streptococcus pyogenes (GC 4563)

CC(c1ccccc1)C1NC(=O)CNC(=O)C(CO)NC(=O)C(C(O)C2CNC(=N)N2C2OC(CO)C(O)C(O)C2O)NC(=O)C(C(O)C2CNC(=N)N2)NC(=O)C(Cc2ccc3oc(-c4cccc(F)c4)nc3c2)NC1=O (stereo not drawn) [Example 30, Cyclo[3-[2-(3-fluorophenyl)-1,3-benzoxazol-5-yl]alanyl-3-(2-iminoimidazolidin-4-yl)seryl-3-(3-hexopyranosyl-2-iminoimidazolidin-4-yl)serylserylglycyl-β-methylphenylalanyl]]
MIC Enterococcus avium (GC 4558) (Enterococcus sp.; Enterococcus avium (GC 4558)): 16 µg/mL (≈ 14.7 µM) | MIC Enterococcus faecalis (ATCC 29212) (Enterococcus sp.; [1]): 64 µg/mL (≈ 58.7 µM) | MIC Enterococcus faecalis (GC 2242) (Enterococcus sp.; [2]): 32 µg/mL (≈ 29.4 µM) | MIC Enterococcus faecalis (GC 2691) (Enterococcus sp.; [3]): 32 µg/mL (≈ 29.4 µM) | MIC Enterococcus faecalis (GC 3059) (Enterococcus sp.; Enterococcus faecalis (GC 3059)): 64 µg/mL (≈ 58.7 µM) | MIC Enterococcus faecalis (GC 4552) (Enterococcus sp.; Enterococcus faecalis (GC 4552)): 64 µg/mL (≈ 58.7 µM) | MIC Enterococcus faecalis (GC 4553) (Enterococcus sp.; [4]): 16 µg/mL (≈ 14.7 µM) | MIC Enterococcus faecalis (GC 4554) (Enterococcus sp.; Enterococcus faecalis (GC 4554)): 64 µg/mL (≈ 58.7 µM) | MIC Enterococcus faecalis (GC 6189) (Enterococcus sp.; [5]): 32 µg/mL (≈ 29.4 µM) | MIC Enterococcus faecium (GC 2243) (Enterococcus sp.; Enterococcus faecium (GC 2243)): 32 µg/mL (≈ 29.4 µM) | MIC Enterococcus faecium (GC 4556) (Enterococcus sp.; Enterococcus faecium (GC 4556)): 64 µg/mL (≈ 58.7 µM) | MIC Enterococcus faecium (GC 4557) (Enterococcus sp.; Enterococcus faecium (GC 4557)): 8 µg/mL (≈ 7.34 µM) | MIC Enterococcus avium (GC 4558) (Enterococcus sp.): 16 µg/mL (≈ 14.7 µM) | MIC Enterococcus faecalis (ATCC 29212) (Enterococcus sp.): 64 µg/mL (≈ 58.7 µM) | MIC Enterococcus faecalis (GC 2242) (Enterococcus sp.): 32 µg/mL (≈ 29.4 µM) | MIC Enterococcus faecalis (GC 2691) (Enterococcus sp.): 32 µg/mL (≈ 29.4 µM) | MIC Enterococcus faecalis (GC 3059) (Enterococcus sp.): 64 µg/mL (≈ 58.7 µM) | MIC Enterococcus faecalis (GC 4552) (Enterococcus sp.): 64 µg/mL (≈ 58.7 µM) | MIC Enterococcus faecalis (GC 4553) (Enterococcus sp.): 16 µg/mL (≈ 14.7 µM) | MIC Enterococcus faecalis (GC 4554) (Enterococcus sp.): 64 µg/mL (≈ 58.7 µM) | MIC Enterococcus faecalis (GC 6189) (Enterococcus sp.): 32 µg/mL (≈ 29.4 µM) | MIC Enterococcus faecium (GC 2243) (Enterococcus sp.): 32 µg/mL (≈ 29.4 µM) | MIC Enterococcus faecium (GC 4556) (Enterococcus sp.): 64 µg/mL (≈ 58.7 µM) | MIC Enterococcus faecium (GC 4557) (Enterococcus sp.): 8 µg/mL (≈ 7.34 µM) | MIC Staphylococcus aureus-SMITH (GC 4543) (Staphylococcus sp.; strain GC 4543): 8 µg/mL (≈ 7.34 µM) | MIC Staphylococcus haemolyticus (GC 4546) (Staphylococcus sp.; strain GC 4546): 4 µg/mL (≈ 3.67 µM) | MIC Coagulase Negative Staphylococcus (GC 4547) (Staphylococcus sp.; strain GC 4547): 8 µg/mL (≈ 7.34 µM) | MIC Coagulase Negative Staphylococcus (GC 4548) (Staphylococcus sp.; strain GC 4548): 4 µg/mL (≈ 3.67 µM) | MIC Coagulase Negative Staphylococcus (GC 4549) (Staphylococcus sp.; strain GC 4549): 16 µg/mL (≈ 14.7 µM) | MIC Coagulase Negative Staphylococcus (GC 4551) (Staphylococcus sp.; strain GC 4551): 8 µg/mL (≈ 7.34 µM) | MIC Coagulase Negative Staphylococcus (GC 6257) (Staphylococcus sp.; strain GC 6257): 4 µg/mL (≈ 3.67 µM) | MIC Staphylococcus aureus-SMITH (GC 4543) (Staphylococcus sp.; strain SMITH GC 4543): 8 µg/mL (≈ 7.34 µM) | MIC Streptococcus agalactiae (GC 4564) (Streptococcus sp.; [6]): 8 µg/mL (≈ 7.34 µM) | MIC Streptococcus pneumoniae (ATCC 6301) (Streptococcus sp.; [7]): 8 µg/mL (≈ 7.34 µM) | MIC Streptococcus pneumoniae (GC 1894) (Streptococcus sp.; [8]): 16 µg/mL (≈ 14.7 µM) | MIC Streptococcus pneumoniae (GC 4565) (Streptococcus sp.; [9]): 16 µg/mL (≈ 14.7 µM) | MIC Streptococcus pyogenes (GC 4563) (Streptococcus sp.; [10]): 4 µg/mL (≈ 3.67 µM) | MIC Streptococcus agalactiae (GC 4564) (Streptococcus sp.): 8 µg/mL (≈ 7.34 µM) | MIC Streptococcus pneumoniae (ATCC 6301) (Streptococcus sp.): 8 µg/mL (≈ 7.34 µM) | MIC Streptococcus pneumoniae (GC 1894) (Streptococcus sp.): 16 µg/mL (≈ 14.7 µM) | MIC Streptococcus pneumoniae (GC 4565) (Streptococcus sp.): 16 µg/mL (≈ 14.7 µM) | MIC Streptococcus pyogenes (GC 4563) (Streptococcus sp.): 4 µg/mL (≈ 3.67 µM) | MIC Escherichia coli (ATCC 25922) (Escherichia coli): 32 µg/mL (≈ 29.4 µM) | MIC Escherichia coli (GC 4559) (Escherichia coli): 32 µg/mL (≈ 29.4 µM) | MIC Escherichia coli (GC 4560) (Escherichia coli): 8 µg/mL (≈ 7.34 µM)

CC(c1ccccc1)C1NC(=O)CNC(=O)C(CO)NC(=O)C(C(O)C2CNC(=N)N2C2OC(CO)C(O)C(O)C2O)NC(=O)C(C(O)C2CNC(=N)N2)NC(=O)C(Cc2ccc3oc(-c4ccc(OCc5ccccc5)cc4)nc3c2)NC1=O (stereo not drawn) [Example 31, Cyclo[3-[2-[4-(phenylmethoxy)phenyl]-1,3-benzoxazol-5-yl]alanyl-3-(2-iminoimidazolidin-4-yl)seryl-3-(3-hexopyranosyl-2-iminoimidazolidin-4-yl)serylserylglycyl-β-methyl-phenylalanyl]]
MIC Enterococcus avium (GC 4558) (Enterococcus sp.; Enterococcus avium (GC 4558)): 8 µg/mL (≈ 6.79 µM) | MIC Enterococcus faecalis (ATCC 29212) (Enterococcus sp.; [1]): 64 µg/mL (≈ 54.3 µM) | MIC Enterococcus faecalis (GC 2242) (Enterococcus sp.; [2]): 64 µg/mL (≈ 54.3 µM) | MIC Enterococcus faecalis (GC 2691) (Enterococcus sp.; [3]): 64 µg/mL (≈ 54.3 µM) | MIC Enterococcus faecalis (GC 4553) (Enterococcus sp.; [4]): 16 µg/mL (≈ 13.6 µM) | MIC Enterococcus faecalis (GC 6189) (Enterococcus sp.; [5]): 64 µg/mL (≈ 54.3 µM) | MIC Enterococcus faecium (GC 2243) (Enterococcus sp.; Enterococcus faecium (GC 2243)): 32 µg/mL (≈ 27.2 µM) | MIC Enterococcus faecium (GC 4556) (Enterococcus sp.; Enterococcus faecium (GC 4556)): 4 µg/mL (≈ 3.39 µM) | MIC Enterococcus faecium (GC 4557) (Enterococcus sp.; Enterococcus faecium (GC 4557)): 4 µg/mL (≈ 3.39 µM) | MIC Enterococcus avium (GC 4558) (Enterococcus sp.): 8 µg/mL (≈ 6.79 µM) | MIC Enterococcus faecalis (ATCC 29212) (Enterococcus sp.): 64 µg/mL (≈ 54.3 µM) | MIC Enterococcus faecalis (GC 2242) (Enterococcus sp.): 64 µg/mL (≈ 54.3 µM) | MIC Enterococcus faecalis (GC 2691) (Enterococcus sp.): 64 µg/mL (≈ 54.3 µM) | MIC Enterococcus faecalis (GC 4553) (Enterococcus sp.): 16 µg/mL (≈ 13.6 µM) | MIC Enterococcus faecalis (GC 6189) (Enterococcus sp.): 64 µg/mL (≈ 54.3 µM) | MIC Enterococcus faecium (GC 2243) (Enterococcus sp.): 32 µg/mL (≈ 27.2 µM) | MIC Enterococcus faecium (GC 4556) (Enterococcus sp.): 4 µg/mL (≈ 3.39 µM) | MIC Enterococcus faecium (GC 4557) (Enterococcus sp.): 4 µg/mL (≈ 3.39 µM) | MIC Coagulase Negative Staphylococcus (GC 4547) (Staphylococcus sp.): 8 µg/mL (≈ 6.79 µM) | MIC Coagulase Negative Staphylococcus (GC 4548) (Staphylococcus sp.): 8 µg/mL (≈ 6.79 µM) | MIC Coagulase Negative Staphylococcus (GC 4549) (Staphylococcus sp.): 16 µg/mL (≈ 13.6 µM) | MIC Coagulase Negative Staphylococcus (GC 4551) (Staphylococcus sp.): 16 µg/mL (≈ 13.6 µM) | MIC Coagulase Negative Staphylococcus (GC 6257) (Staphylococcus sp.): 4 µg/mL (≈ 3.39 µM) | MIC Staphylococcus aureus SMITH (GC 4543) (Staphylococcus sp.): 16 µg/mL (≈ 13.6 µM) | MIC Staphylococcus haemolyticus (GC 4546) (Staphylococcus sp.): 8 µg/mL (≈ 6.79 µM) | MIC Staphylococcus aureus-SMITH (GC 4543) (Staphylococcus sp.; strain SMITH GC 4543): 16 µg/mL (≈ 13.6 µM) | MIC Streptococcus agalactiae (GC 4564) (Streptococcus sp.; [6]): 32 µg/mL (≈ 27.2 µM) | MIC Streptococcus pneumoniae (ATCC 6301) (Streptococcus sp.; [7]): 16 µg/mL (≈ 13.6 µM) | MIC Streptococcus pneumoniae (GC 1894) (Streptococcus sp.; [8]): 32 µg/mL (≈ 27.2 µM) | MIC Streptococcus pneumoniae (GC 4565) (Streptococcus sp.; [9]): 64 µg/mL (≈ 54.3 µM) | MIC Streptococcus pyogenes (GC 4563) (Streptococcus sp.; [10]): 8 µg/mL (≈ 6.79 µM) | MIC Streptococcus agalactiae (GC 4564) (Streptococcus sp.): 32 µg/mL (≈ 27.2 µM) | MIC Streptococcus pneumoniae (ATCC 6301) (Streptococcus sp.): 16 µg/mL (≈ 13.6 µM) | MIC Streptococcus pneumoniae (GC 1894) (Streptococcus sp.): 32 µg/mL (≈ 27.2 µM) | MIC Streptococcus pneumoniae (GC 4565) (Streptococcus sp.): 64 µg/mL (≈ 54.3 µM) | MIC Streptococcus pyogenes (GC 4563) (Streptococcus sp.): 8 µg/mL (≈ 6.79 µM) | MIC Escherichia coli (GC 4560) (Escherichia coli): 32 µg/mL (≈ 27.2 µM)
